Source: patent EP4273147A1, “SUBSTITUTED SPIROLACTAMS, SALTS THEREOF AND THEIR USE AS HERBICIDALLY ACTIVE SUBSTANCES” (Bayer Aktiengesellschaft, priority 2022, dated 2023)

Key:
[1] = tested on: LOLRI; assay: Herbicidal pre-emergence action (Table A3); type: in vivo, Lolium rigidum; conditions: visual grading after ca. 3 weeks
Summary of the method: (§1)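 Sown in sandy loam in pots and covered with soil: weed seeds, two species per pot, one of each plant class (mono- and dicotyledonous).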

[2] = tested on: MATIN; assay: Herbicidal pre-emergence action (Table A4); type: in vivo, Matricaria inodora; conditions: application rate 1280 g/ha; visual grading after ca. 3 weeks
Summary of the method: as §1

[3] = tested on: SETVI; assay: Herbicidal pre-emergence action (Table A5); type: in vivo, Setaria viridis; conditions: visual grading after ca. 3 weeks
Summary of the method: as §1

[4] = tested on: STEME; assay: Herbicidal pre-emergence action (Table A6); type: in vivo, Stellaria media; conditions: visual grading after ca. 3 weeks
Summary of the method: as §1

[5] = tested on: POAAN; assay: Herbicidal pre-emergence action (Table A7); type: in vivo, Poa annua; conditions: visual grading after ca. 3 weeks
Summary of the method: as §1

[6] = tested on: POAAN; assay: Herbicidal post-emergence action (Table B7); type: in vivo, Poa annua; conditions: application rate 1280 g/ha
Summary of the method: (§2)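 Each pot held sandy loam sown with a single mono- or dicot weed species, grown under controlled greenhouse conditions. Test plants were sprayed at the one-leaf stage, and after about 3 weeks of further growth the percentage activity relative to untreated plants was rated visually.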

[7] = tested on: ALOMY; assay: Herbicidal pre-emergence action, section C (Table C2); type: in vivo, Alopecurus myosuroides; conditions: application rate 320 g/ha; visual grading after ca. 3 weeks
[8] = tested on: ECHCG; assay: Herbicidal pre-emergence action, section C (Table C6); type: in vivo, Echinochloa crus-galli; conditions: application rate 320 g/ha; visual grading after ca. 3 weeks
[9] = tested on: SETVI; assay: Herbicidal pre-emergence action, section C (Table C10); type: in vivo, Setaria viridis; conditions: visual grading after ca. 3 weeks
Text: (§4) Seeds of mono- and dicotyledonous weed plants and crop plants were sown, in plastic or organic planting pots, in sandy loam and covered with soil. The compounds according to the invention, formulated in the form of wettable powders (WP) or as emulsifiable concentrates (EC), were applied to the surface of the covering soil as aqueous suspension or emulsion, with the addition of 0.5% of an additive, at an application rate of 600 1 of water/ha (converted). Following treatment, the pots were placed in a greenhouse and kept under optimum growth conditions for the test plants.

[10] = tested on: VERPE; assay: Herbicidal pre-emergence action, section C (Table C11); type: in vivo, Veronica persica; conditions: application rate 80 g/ha; visual grading after ca. 3 weeks
[11] = tested on: VIOTR; assay: Herbicidal pre-emergence action, section C (Table C12); type: in vivo, Viola tricolor; conditions: application rate 320 g/ha; visual grading after ca. 3 weeks
[12] = tested on: ZEAMX; assay: Pre-emergence effects on crop plants (Table D1); type: in vivo, Zea mays; conditions: crop plant, visual grading after ca. 3 weeks
[13] = tested on: TRZAS; assay: Pre-emergence effects on crop plants (Table D2); type: in vivo, Triticum aestivum; conditions: crop plant, visual grading after ca. 3 weeks
[14] = tested on: GLXMA; assay: Pre-emergence effects on crop plants (Table D4); type: in vivo, Glycine max; conditions: crop plant, visual grading after ca. 3 weeks
[15] = tested on: BRSNW; assay: Pre-emergence effects on crop plants (Table D5); type: in vivo, Brassica napus; conditions: crop plant, visual grading after ca. 3 weeks
[16] = tested on: ECHCG; assay: Herbicidal post-emergence action, section E (Table E5); type: in vivo, Echinochloa crus-galli; conditions: application rate 320 g/ha; assessed visually after ca. 3 weeks
Text: (§3) 2 to 3 weeks after sowing, the test plants were sprayed in the single-leaf stage.

[17] = tested on: VERPE; assay: Herbicidal post-emergence action, section E (Table E9); type: in vivo, Veronica persica; conditions: application rate 320 g/ha; assessed visually after ca. 3 weeks
Text: as §3

[18] = tested on: ZEAMX; assay: Post-emergence effects on crop plants (Table F1); type: in vivo, Zea mays; conditions: application rate 320 g/ha, crop plant ZEAMX
Text: as §3

[19] = tested on: TRZAS; assay: Post-emergence effects on crop plants (Table F2); type: in vivo, Triticum aestivum; conditions: application rate 320 g/ha, crop plant TRZAS
Text: as §3

[20] = tested on: ORYZA; assay: Post-emergence effects on crop plants (Table F3); type: in vivo, Oryza sativa; conditions: application rate 320 g/ha, crop plant ORYZA
Text: as §3

[21] = tested on: BRSNW; assay: Post-emergence effects on crop plants (Table F5); type: in vivo, Brassica napus; conditions: crop plant BRSNW
Text: as §3

[22] = tested on: ORYZA; assay: Pre-emergence effects on crop plants (Table D3); conditions: crop plant, visual grading after ca. 3 weeks
[23] = tested on: ECHCG; assay: Herbicidal pre-emergence action (Table A2); type: in vivo, Echinochloa crus-galli; conditions: visual grading after ca. 3 weeks
Summary of the method: as §1

[24] = tested on: ECHCG; assay: Herbicidal post-emergence action (Table B3); type: in vivo, Echinochloa crus-galli; conditions: application rate 1280 g/ha; rated visually after about 3 weeks
Summary of the method: as §2

[25] = tested on: ABUTH; assay: Herbicidal pre-emergence action, section C (Table C1); type: in vivo, Abutilon theophrasti; conditions: application rate 320 g/ha; visual grading after ca. 3 weeks
Text: as §4

[26] = tested on: AMARE; assay: Herbicidal pre-emergence action (Table A8); type: in vivo, Amaranthus retroflexus; conditions: application rate 1280 g/ha; visual grading after ca. 3 weeks vs untreated controls (100% = plants have died off, 0% = as control plants)
Text: Seeds of mono- and dicotyledonous weed plants were sown in plastic pots (double sowings with one species of mono- and one species of dicotyledonous weed plants per pot), in sandy loam, and covered with soil.

[27] = tested on: VERPE; assay: Herbicidal pre-emergence action (Table A11); type: in vivo, Veronica persica; conditions: application rate 1280 g/ha; visual grading after ca. 3 weeks
Summary of the method: as §1

[28] = tested on: DIGSA; assay: Herbicidal pre-emergence action, section C (Table C5); type: in vivo, Digitaria sanguinalis; conditions: application rate 320 g/ha; visual grading after ca. 3 weeks
[29] = tested on: VIOTR; assay: Herbicidal post-emergence action, section E (Table E10); type: in vivo, Viola tricolor; conditions: application rate 320 g/ha; assessed visually after ca. 3 weeks
Text: as §3

[30] = tested on: GLXMA; assay: Post-emergence effects on crop plants (Table F4); type: in vivo, Glycine max; conditions: crop plant GLXMA
Text: as §3

SMILES | pre-emergence activity against MATIN [2] | pre-emergence activity against SETVI ([3]; application rate 320 g/ha) | pre-emergence activity against STEME ([4]; application rate 320 g/ha) | pre-emergence activity against POAAN ([5]; application rate 320 g/ha) | post-emergence activity against POAAN [6] | pre-emergence activity against ECHCG [8] | pre-emergence activity against SETVI ([9]; application rate 320 g/ha) | pre-emergence activity against ZEAMX ([12]; application rate 320 g/ha) | pre-emergence activity against TRZAS ([13]; application rate 320 g/ha) | post-emergence activity against ECHCG [16] | post-emergence activity against ZEAMX [18] | post-emergence activity against TRZAS [19] | post-emergence activity against ORYZA [20] | pre-emergence activity against ORYZA ([22]; application rate 80 g/ha) | pre-emergence activity against ECHCG ([23]; application rate 320 g/ha) | pre-emergence activity against POAAN ([5]; application rate 1280 g/ha) | pre-emergence activity against ZEAMX ([12]; application rate 80 g/ha) | pre-emergence activity against GLXMA ([14]; application rate 320 g/ha) | pre-emergence activity against DIGSA [28] | pre-emergence activity against BRSNW ([15]; application rate 320 g/ha) | also measured
O=C1N(Cc2ccc(Cl)s2)CCCC12CCCN(Cc1ccc(Cl)s1)C2=O (racemic) [I-022] | 90% | 100% | 100% | 100% | 90% | 100% | 100% | 0% | 10% | 90% | 0% | 10% | 10% | 10% |  |  |  |  |  |  | pre-emergence activity against LOLRI ([1]; application rate 1280 g/ha): 90%; pre-emergence activity against ALOMY [7]: 90%; pre-emergence activity against VERPE [10]: 100%; pre-emergence activity against VIOTR [11]: 80%; pre-emergence activity against GLXMA ([14]; application rate 80 g/ha): 20%; pre-emergence activity against BRSNW ([15]; application rate 80 g/ha): 0%; post-emergence activity against VERPE [17]: 80%; post-emergence activity against BRSNW ([21]; application rate 80 g/ha): 20%
O=C1N(Cc2ccccc2Br)CCCC12CCCN(Cc1c(F)cccc1F)C2=O (racemic) [I-048] | 90% | 100% |  |  | 90% | 100% |  |  |  | 80% | 20% | 20% | 0% | 0% | 100% | 90% | 0% | 0% |  |  | pre-emergence activity against LOLRI ([1]; application rate 320 g/ha): 100%; post-emergence activity against ECHCG [24]: 90%; pre-emergence activity against ABUTH [25]: 90%; pre-emergence activity against SETVI ([9]; application rate 80 g/ha): 100%; pre-emergence activity against TRZAS ([13]; application rate 80 g/ha): 0%
CC(c1ccccc1F)N1CCCC2(CCCN(C(C)c3ccccc3F)C2=O)C1=O (stereo not drawn) [I-060] |  |  |  |  |  |  | 100% |  | 10% |  | 10% | 0% | 0% |  | 90% | 100% | 0% | 10% | 100% | 10% | pre-emergence activity against SETVI ([3]; application rate 1280 g/ha): 100%; pre-emergence activity against STEME ([4]; application rate 1280 g/ha): 90%; pre-emergence activity against AMARE [26]: 90%; pre-emergence activity against VERPE [27]: 90%; post-emergence activity against VIOTR [29]: 90%; post-emergence activity against GLXMA ([30]; application rate 80 g/ha): 0%; post-emergence activity against BRSNW ([21]; application rate 320 g/ha): 0%
O=C1N(Cc2c(F)cccc2Cl)CCCC12CCCN(Cc1c(F)cccc1Cl)C2=O (racemic) [I-063] |  | 100% | 100% | 100% |  |  | 100% | 0% | 0% |  | 10% | 0% | 0% |  |  |  |  | 0% | 100% | 10% | pre-emergence activity against ECHCG ([23]; application rate 1280 g/ha): 100%; post-emergence activity against VIOTR [29]: 80%; post-emergence activity against GLXMA ([30]; application rate 320 g/ha): 10%; post-emergence activity against BRSNW ([21]; application rate 320 g/ha): 10%; pre-emergence activity against ORYZA ([22]; application rate 320 g/ha): 0%
